{"source": "paper PMC11995724", "about": "“Antibiotic target discovery by integrated phenotypic and activity-based profiling of electrophilic fragments” (Cell chemical biology, 2025)", "note": "Structures can show the parent of a compound that is named as a salt."}
{"assay": "in vitro", "details": "human, hek293t cells", "units": {"viability at 48 h, 25 µM": "%"}}
{"smiles": "O=C(CCl)NCC(c1ccccc1Cl)N1CCCC1", "note": "(centres unmarked) [6-G17, 2-chloro-N-[2-(2-chlorophenyl)-2-(pyrrolidin-1-yl)ethyl]acetamide hydrochloride]", "viability at 48 h, 25 µM": 104}
{"smiles": "Cc1cc(C=C(C#N)C(=O)NCc2ccccc2)c(C)n1C1CC1", "note": "[8-G14, N-benzyl-2-cyano-3-(1-cyclopropyl-2,5-dimethyl-1H-pyrrol-3-yl)prop-2-enamide]", "viability at 48 h, 25 µM": 74}
{"smiles": "N#CCCN(C(=O)CCl)c1ccccc1F", "note": "[5-P07, 2-chloro-N-(2-cyanoethyl)-N-(2-fluorophenyl)acetamide]", "viability at 48 h, 25 µM": 1.04}
{"smiles": "CNC(=O)C(C#N)=Cc1cccc(-c2ccncc2)c1", "note": "[9-L14, 2-cyano-N-methyl-3-[3-(pyridin-4-yl)phenyl]prop-2-enamide]", "viability at 48 h, 25 µM": 108}
{"smiles": "CCc1ccc(C(NC(=O)CCl)c2cccc(F)c2)cc1", "note": "(centres unmarked) [4-C20, 2-chloro-N-[(4-ethylphenyl)(3-fluorophenyl)methyl]acetamide]", "viability at 48 h, 25 µM": 0.508}
{"smiles": "CC(Cl)C(=O)NCc1ccc2cnn(C)c2c1", "note": "(centres unmarked) [7-D21, 2-chloro-N-[(1-methyl-1H-indazol-6-yl)methyl]propanamide]", "viability at 48 h, 25 µM": 87.7}
{"smiles": "CC(=O)N(C)c1cccc(NC(=O)C(C#N)=Cc2ccco2)c1", "note": "[9-L18, 2-cyano-3-(furan-2-yl)-N-[3-(N-methylacetamido)phenyl]prop-2-enamide]", "viability at 48 h, 25 µM": 104}
{"smiles": "C=CC(=O)NCc1ccsc1S(N)(=O)=O", "note": "[2-J15, N-[(2-sulfamoylthiophen-3-yl)methyl]prop-2-enamide]", "viability at 48 h, 25 µM": 53.1}
{"smiles": "O=C1C=CC(=O)N1c1ccccc1F", "note": "[10-D17, 1-(2-fluorophenyl)-2,5-dihydro-1H-pyrrole-2,5-dione]", "viability at 48 h, 25 µM": 90.3}
{"smiles": "CC(Cl)C(=O)Nc1cccc(C(F)(F)F)c1", "note": "(centres unmarked) [5-P14, 2-chloro-N-[3-(trifluoromethyl)phenyl]propanamide]", "viability at 48 h, 25 µM": 90.7}
{"smiles": "C=CC(=O)N1CCC(C(=O)NC2CC2(C)C)CC1", "note": "(centres unmarked) [3-C07, N-(2,2-dimethylcyclopropyl)-1-(prop-2-enoyl)piperidine-4-carboxamide]", "viability at 48 h, 25 µM": 30.9}
{"smiles": "C=CC(=O)N1CCC(C(=O)N(C)C2CCCc3c2cnn3C)CC1", "note": "(centres unmarked) [2-P12, N-methyl-N-(1-methyl-4,5,6,7-tetrahydro-1H-indazol-4-yl)-1-(prop-2-enoyl)piperidine-4-carboxamide]", "viability at 48 h, 25 µM": 78.2}
{"smiles": "CC(Cl)C(=O)Nc1cc(Cl)ccc1Cl", "note": "(centres unmarked) [6-A15, 2-chloro-N-(2,5-dichlorophenyl)propanamide]", "viability at 48 h, 25 µM": 86.9}
{"smiles": "CC1CCCCC1NC(=O)CCl", "note": "(centres unmarked) [6-C10, 2-chloro-N-(2-methylcyclohexyl)acetamide]", "viability at 48 h, 25 µM": 93.3}
{"smiles": "C=CC(=O)N1CCC(C(=O)N2CCC(C(C)(C)O)CC2)CC1", "note": "[2-H14, 1-{4-[4-(2-hydroxypropan-2-yl)piperidine-1-carbonyl]piperidin-1-yl}prop-2-en-1-one]", "viability at 48 h, 25 µM": 60.8}
{"smiles": "Cc1ccc(NC(=O)C(C#N)=Cc2cccc(F)c2)cc1", "note": "[8-F11, 2-cyano-3-(3-fluorophenyl)-N-(4-methylphenyl)prop-2-enamide]", "viability at 48 h, 25 µM": 85.7}
{"smiles": "N#CC(=Cc1ccc(-c2ccccc2F)o1)C(=O)NCc1ccccc1", "note": "[9-H10, N-benzyl-2-cyano-3-[5-(2-fluorophenyl)furan-2-yl]prop-2-enamide]", "viability at 48 h, 25 µM": 92.7}
{"smiles": "C=CC(=O)N1CCC(OC2CCCC2)CC1", "note": "[1-L07, 1-[4-(cyclopentyloxy)piperidin-1-yl]prop-2-en-1-one]", "viability at 48 h, 25 µM": 96.8}
{"smiles": "C=CC(=O)NCc1cccc(N2C(=O)NC3(CCCC3)C2=O)c1", "note": "[2-M11, N-[(3-{2,4-dioxo-1,3-diazaspiro[4.4]nonan-3-yl}phenyl)methyl]prop-2-enamide]", "viability at 48 h, 25 µM": 89.7}
{"smiles": "Cc1ccc(C=C(C#N)C(=O)N2CCCC2)cc1", "note": "[8-E17, 3-(4-methylphenyl)-2-(pyrrolidine-1-carbonyl)prop-2-enenitrile]", "viability at 48 h, 25 µM": 75.4}
{"smiles": "N#CC(=Cc1cccc(O)c1)C(=O)Nc1ccccc1C(F)(F)F", "note": "[9-A20, 2-cyano-3-(3-hydroxyphenyl)-N-[2-(trifluoromethyl)phenyl]prop-2-enamide]", "viability at 48 h, 25 µM": 109}
{"smiles": "COc1ccc(C=C(C#N)C(=O)Nc2ccccc2)cc1", "note": "[8-A05, 2-cyano-3-(4-methoxyphenyl)-N-phenylprop-2-enamide]", "viability at 48 h, 25 µM": 76.8}
{"smiles": "C=CC(=O)NCC(C)(C)C1(O)CCOC1", "note": "(centres unmarked) [3-K13, N-[2-(3-hydroxyoxolan-3-yl)-2-methylpropyl]prop-2-enamide]", "viability at 48 h, 25 µM": 68}
{"smiles": "N#CC(=Cc1ccc(OC(F)F)cc1)C(=O)N1CCCC1", "note": "[8-L22, 3-[4-(difluoromethoxy)phenyl]-2-(pyrrolidine-1-carbonyl)prop-2-enenitrile]", "viability at 48 h, 25 µM": 105}
{"smiles": "C=CC(=O)NCCC(=O)N1CCCN(C(=O)c2ccccc2F)CC1", "note": "[2-D20, N-{3-[4-(2-fluorobenzoyl)-1,4-diazepan-1-yl]-3-oxopropyl}prop-2-enamide]", "viability at 48 h, 25 µM": 93.7}
{"smiles": "C=CC(=O)NC(C)c1nc(C2CCCCC2)no1", "note": "(centres unmarked) [1-N17, N-[1-(3-cyclohexyl-1,2,4-oxadiazol-5-yl)ethyl]prop-2-enamide]", "viability at 48 h, 25 µM": 102}
{"smiles": "CC(Cl)C(=O)Nc1ccc(Cl)cc1C(F)(F)F", "note": "(centres unmarked) [4-A14, 2-chloro-N-[4-chloro-2-(trifluoromethyl)phenyl]propanamide]", "viability at 48 h, 25 µM": 50.2}
{"smiles": "O=S(=O)(CC=C(Cl)Cl)N1CCSSCC1", "note": "[10-P19, 5-(3,3-dichloroprop-2-ene-1-sulfonyl)-1,2,5-dithiazepane]", "viability at 48 h, 25 µM": 127}
{"smiles": "CCOc1ccccc1NC(=O)C(C#N)=Cc1c(C)[nH]c2ccccc12", "note": "[9-A06, 2-cyano-N-(2-ethoxyphenyl)-3-(2-methyl-1H-indol-3-yl)prop-2-enamide]", "viability at 48 h, 25 µM": 100}
{"smiles": "O=C(CCl)N1CCn2c(cc3ccccc32)C1", "note": "[5-A20, 2-chloro-1-{1H,2H,3H,4H-pyrazino[1,2-a]indol-2-yl}ethan-1-one]", "viability at 48 h, 25 µM": 0.499}
{"smiles": "C=CC(=O)N1C[C@H](NC(C)=O)[C@@H](c2ccnn2C)C1", "note": "(racemic) [2-M16, rac-N-[(3R,4S)-4-(1-methyl-1H-pyrazol-5-yl)-1-(prop-2-enoyl)pyrrolidin-3-yl]acetamide]", "viability at 48 h, 25 µM": 96}
{"smiles": "CC(Cl)C(=O)NCC1CN(S(C)(=O)=O)C1", "note": "(centres unmarked) [7-C04, 2-chloro-N-[(1-methanesulfonylazetidin-3-yl)methyl]propanamide]", "viability at 48 h, 25 µM": 118}
{"smiles": "C=CC(=O)NCc1noc(-c2cccs2)n1", "note": "[3-H15, N-{[5-(thiophen-2-yl)-1,2,4-oxadiazol-3-yl]methyl}prop-2-enamide]", "viability at 48 h, 25 µM": 93.9}
{"smiles": "C=CC(=O)N1CCCC(n2cncn2)C1", "note": "(centres unmarked) [2-C03, 1-[3-(1H-1,2,4-triazol-1-yl)piperidin-1-yl]prop-2-en-1-one]", "viability at 48 h, 25 µM": 90.2}
{"smiles": "Cc1cc(C)n(C2CN(C(=O)C(C)Cl)C2)n1", "note": "(centres unmarked) [7-F15, 2-chloro-1-[3-(3,5-dimethyl-1H-pyrazol-1-yl)azetidin-1-yl]propan-1-one]", "viability at 48 h, 25 µM": 85.3}
{"smiles": "NC(=O)c1ccccc1N1CCC(NC(=O)CCl)CC1", "note": "[7-P14, 2-[4-(2-chloroacetamido)piperidin-1-yl]benzamide hydrochloride]", "viability at 48 h, 25 µM": 0.53}
{"smiles": "C=CC(=O)N1CCC(Cc2ccccc2)CC1", "note": "[2-O10, 1-(4-benzylpiperidin-1-yl)prop-2-en-1-one]", "viability at 48 h, 25 µM": 73}
{"smiles": "CC(Cl)C(=O)N1CCCC1c1nc(N(C)C)no1", "note": "(centres unmarked) [7-F19, 2-chloro-1-{2-[3-(dimethylamino)-1,2,4-oxadiazol-5-yl]pyrrolidin-1-yl}propan-1-one]", "viability at 48 h, 25 µM": 77.6}
{"smiles": "O=C(CCl)NCCc1ccc(Cl)cc1", "note": "[4-O12, 2-chloro-N-[2-(4-chlorophenyl)ethyl]acetamide]", "viability at 48 h, 25 µM": 7.11}
{"smiles": "C=CC(=O)NCc1nc2ccccc2s1", "note": "[1-I12, N-[(1,3-benzothiazol-2-yl)methyl]prop-2-enamide]", "viability at 48 h, 25 µM": 35.8}
{"smiles": "CC(Cl)C(=O)Nc1ccc(Cl)cc1F", "note": "(centres unmarked) [4-C14, 2-chloro-N-(4-chloro-2-fluorophenyl)propanamide]", "viability at 48 h, 25 µM": 58.6}
{"smiles": "Cc1ccccc1-n1c(C)cc(C(=O)CCl)c1C", "note": "[10-H20, 2-chloro-1-[2,5-dimethyl-1-(2-methylphenyl)-1H-pyrrol-3-yl]ethan-1-one]", "viability at 48 h, 25 µM": 0.349}
{"smiles": "Cc1ccc2nc(-c3ccc(F)cc3)c(CNC(=O)C(C)Cl)n2c1", "note": "(centres unmarked) [5-D21, 2-chloro-N-{[2-(4-fluorophenyl)-6-methylimidazo[1,2-a]pyridin-3-yl]methyl}propanamide]", "viability at 48 h, 25 µM": 113}
{"smiles": "CCN(CC)c1ccc(NC(=O)CCl)cc1", "note": "[6-N10, 2-chloro-N-[4-(diethylamino)phenyl]acetamide]", "viability at 48 h, 25 µM": 2.56}
{"smiles": "CC(Cl)C(=O)NCc1nc(-c2cccc(C#N)c2)c[nH]1", "note": "(centres unmarked) [6-F09, 2-chloro-N-{[4-(3-cyanophenyl)-1H-imidazol-2-yl]methyl}propanamide]", "viability at 48 h, 25 µM": 113}
{"smiles": "O=C(CCl)c1ccc(F)c(F)c1", "note": "[10-L13, 2-chloro-1-(3,4-difluorophenyl)ethan-1-one]", "viability at 48 h, 25 µM": 95.7}
{"smiles": "CC(=O)c1ccc(S(=O)(=O)N2CCN(C(=O)CCl)CC2)cc1", "note": "[5-P16, 1-[4-(4-acetylbenzenesulfonyl)piperazin-1-yl]-2-chloroethan-1-one]", "viability at 48 h, 25 µM": 1.74}
{"smiles": "CC(NC(=O)CCl)C(=O)N1CCS(=O)(=O)CC1", "note": "(centres unmarked) [5-K14, 2-chloro-N-[1-(1,1-dioxo-1lambda6-thiomorpholin-4-yl)-1-oxopropan-2-yl]acetamide]", "viability at 48 h, 25 µM": 86.7}
{"smiles": "C=CC(=O)N1CCC(C(=O)N[C@H](C)c2ccc3c(c2)CCCC3)CC1", "note": "[3-P12, 1-(prop-2-enoyl)-N-[(1R)-1-(5,6,7,8-tetrahydronaphthalen-2-yl)ethyl]piperidine-4-carboxamide]", "viability at 48 h, 25 µM": 58}
{"smiles": "CC(Cl)C(=O)Nc1cc2c(cc1Cl)C(=O)c1ccccc1C2=O", "note": "(centres unmarked) [4-I12, 2-chloro-N-(3-chloro-9,10-dioxo-9,10-dihydroanthracen-2-yl)propanamide]", "viability at 48 h, 25 µM": 79.4}
{"smiles": "C=CC(=O)NC1CC(CC(F)(F)F)C1", "note": "(centres unmarked) [2-F09, N-[3-(2,2,2-trifluoroethyl)cyclobutyl]prop-2-enamide]", "viability at 48 h, 25 µM": 65.5}
{"smiles": "CC(Cl)C(=O)Nc1ccc2c(c1)ncn2-c1ccccc1", "note": "(centres unmarked) [6-N13, 2-chloro-N-(1-phenyl-1H-1,3-benzodiazol-5-yl)propanamide]", "viability at 48 h, 25 µM": 105}
{"smiles": "C=CC(=O)N(Cc1cn(C2CCC2)nn1)c1ccc(F)cc1", "note": "[1-G09, N-[(1-cyclobutyl-1H-1,2,3-triazol-4-yl)methyl]-N-(4-fluorophenyl)prop-2-enamide]", "viability at 48 h, 25 µM": 37.6}
